Measurements published in patent EP0068806A2, “Basic acyl amides of (5-amino-1,3-dialkylpyrazol-4-yl)(aryl)methanones, processes for their production, and pharmaceutical compositions containing such compounds” (WARNER-LAMBERT COMPANY, priority 1981, dated 1983).

System: Long-Evans rats or squirrel-monkeys
Test: Conditioned lever-press avoidance of electric footshock (antipsychotic activity)
Type: in vivo
Details: avoidance test for antipsychotic activity; Long-Evans rats or squirrel-monkeys (species per value not stated)
Protocol: Representative compounds of the invention (identified in the examples) were also tested for antipsychotic activity according to the following protocol. The noted compounds had the indicated ED50 values (mg/kg) and are considered active as antipsychotic agents in the test procedure.
Mature male Long-Evans rats or squirrel-monkeys are conditioned to push a lever in order to avoid a painful electric footshock. If the animal fails to push the. lever, he receives a shock every 10 seconds until the lever is pushed. Shocks can be terminated by pushing the lever. Thereafter, as long as the lever is pushed at least once every 20 seconds, there will be no shock.
Each animal acts as its own control; one weekly session is used to establish baseline behavior and another session later in the week is used as a drug session. Once patterns of avoidance are established, the effects of standard and unknown compounds are studied.
All events are electronically programmed and the response to these events counted or used as feed-back to the program.

Q: For `Cc1nn(C)c(NC(=O)CN2CCCC2)c1C(=O)c1ccccc1F` [Compound 1, N-[4-(2-Fluorobenzoyl)-1,3-dimethyl-1H-pyrazol-5-yl]-1-pyrrolidineacetamide], which ED50 is on record?
A: 48.2 mg/kg

Q: How did the ED50 turn out when `Cc1nn(C)c(NC(=O)CN2CCCCC2)c1C(=O)c1ccccc1F` [Compound 5, N-[4-(2-Fluorobenzoyl)-1,3-dimethyl-1H-pyrazol-5-yl]-1-piperidine-acetamide] was run?
A: 48 mg/kg

Q: With `CCN(CC)CC(=O)Nc1c(C(=O)c2ccccc2F)c(C)nn1C` [Compound 6, 2-(Diethylamino)-N-[4-(2-fluorobenzoyl)-1,3-dimethyl-1H-pyrazol-5-yl]acetamide] as the compound, how does the ED50 read?
A: 25.6 mg/kg

Q: With `Cc1nn(C)c(NC(=O)CNCC2(C)OCCO2)c1C(=O)c1ccccc1F` [Compound 8, N-[4-(2-Fluorobenzoyl)-1,3-dimethyl-1H-pyrazol-5-yl]-3-[[(2-methyl-1,3-dioxolan-2-yl)methyl]amino]acetamide] as the compound, how does the ED50 read?
A: 36.4 mg/kg

Q: Which ED50 does the source give for `Cc1nn(C)c(NC(=O)CN2CC3CCC(CC3)C2)c1C(=O)c1ccccc1F` [Compound 9, N-[4-(2-Fluorobenzoyl)-1,3-dinethyl-1H-pyrazol-5-yl]-3-azabicyclo-[3,2,2]nonane-3-acetamide] here?
A: 36.3 mg/kg

Q: With `Cc1nn(C)c(NC(=O)CNCCCN2CCCCC2C)c1C(=O)c1ccccc1F` (stereo not drawn) [Compound 20, N-[4-(2-Fluorobenzoyl)-1,3-dimethyl-1H-pyrazol-5-yl]-2-[[3-(2-methyl-1-piperidinyl)propyl]amino]acetamide] as the compound, how does the ED50 read?
A: 21.4 mg/kg

Q: For `Cc1nn(C)c(NC(=O)CNCCCN2CCOCC2)c1C(=O)c1ccccc1F` [Compound 35], which ED50 is on record?
A: 51.6 mg/kg

Q: `CC1=C(NCCN(C)CC(=O)Nc2c(C(=O)c3ccccc3F)c(C)nn2C)CCC1=O` [Compound 38, N-[4-(2-Fluorobenzoyl}-1,3-dimethyl-1H-pyrazol-5-yl]-2-[mothyl[2-[(2-methyl-3-oxo-1-cyclopenten-1-yl}amino]ethyl]amino]acetamide] was tested. Which ED50 did it give?
A: 21.7 mg/kg

Q: With `Cc1nn(C)c(NC(=O)CSCCCN2CCCCC2C)c1C(=O)c1ccccc1F` (stereo not drawn) [Compound 43, N-[4-(2-Fluorobenzoyl)-1,3-dimethyl-1H-pyrazol-5-yl]-2-[[3-(2-methyl-1-piperidinyl)propyl]thio]acetamide] as the compound, how does the ED50 read?
A: 26.5 mg/kg
